Experimental findings from USRE39420E1, “1,2-Diphenylpyrrole derivatives, their preparation and their therapeutic uses” (Sankyo Company, Limited, priority 1996, dated 2006) are described below.

SMILES strings stand for the structures. A value given as a limit tells only on which side of the number the result lay.

Data set [1] has as its target T1, Cyclooxygenase-1 from Ram Seminal Vesicle Microsomes (RSVM) (Ovis aries, UniProt P05979).
T1 construct: ram seminal vesicles were homogenised by a blender; from tissue; host or cells: ram seminal vesicles (microsomes)
T1 sequence (P05979 25-600): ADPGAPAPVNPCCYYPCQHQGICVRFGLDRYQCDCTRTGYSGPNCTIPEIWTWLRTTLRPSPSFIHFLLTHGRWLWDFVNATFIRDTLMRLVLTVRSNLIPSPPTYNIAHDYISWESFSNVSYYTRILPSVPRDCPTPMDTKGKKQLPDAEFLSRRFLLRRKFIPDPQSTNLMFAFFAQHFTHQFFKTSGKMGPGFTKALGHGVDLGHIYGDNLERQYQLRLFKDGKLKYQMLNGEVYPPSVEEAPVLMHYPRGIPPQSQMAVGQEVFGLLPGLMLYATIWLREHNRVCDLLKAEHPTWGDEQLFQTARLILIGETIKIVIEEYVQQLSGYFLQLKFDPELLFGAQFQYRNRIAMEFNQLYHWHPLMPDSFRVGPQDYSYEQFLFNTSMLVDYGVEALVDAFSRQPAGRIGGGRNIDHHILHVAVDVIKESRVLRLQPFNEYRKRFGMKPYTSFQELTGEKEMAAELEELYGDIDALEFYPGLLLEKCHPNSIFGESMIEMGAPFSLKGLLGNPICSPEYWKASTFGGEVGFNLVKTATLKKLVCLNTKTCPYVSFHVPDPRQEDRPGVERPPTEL
Description: Inhibitory activity on cyclooxygenase-1 from ram seminal vesicle microsomes (PGE2 ELISA). The data set is classed as biochemical. The settings on record: PGE2 formation, read-out: Inhibitory Effect on COX-1[IC50(μM)]. On the procedure: (§1) In order to prepare cyclooxygenase-1 (COX-1) microsomes, ram seminal vesicles were homogenised by a blender. To prepare cyclooxygenase-2 (COX-2) microsomes, an expression vector which contains the human COX-2 gene was introduced into COS cells. The cells were homogenised by sonication after 66 hours cultivation. Microsomes were then prepared in accordance with conventional methods. Enzyme activity was assayed as follows. The assay mixture contained 10 μl of COX-1 or COX-2 microsomes (5 to 15 μg), 2 μl of sample dissolved in dimethyl sulfoxide, 50 μl of 200 mM Tris (pH 7.6), 10 μl of 20 mM reduced glutathione, 10 μl of 10 mM epinephrine, and 15.5 μl of distilled water. After preincubation at 37° C. for 15 minutes, 2.5 μl of 10 μM arachidonic acid (dissolved in ethanol) were then added to the mixture (final volume of 100 μl) and allowed to react at 37° C. for 30 minutes. The final dimethyl sulfoxide and ethanol concentrations were 2% and 2.5%, respectively. To the reaction mixture were then added 15 μl of ice-cooled 0.2M HCl to stop the reaction, and the mixture was cooled at 4° C. for 5 minutes. 15 μl of a 0.2M aqueous solution of sodium hydroxide were then added to the reaction mixture to neutralise the pH. The amount of PGE2, in the reaction mixture was measured using a commercially available ELISA kit (Cayman). IC50 was calculated from the regression line determined by the inhibition rates of PGE2 formation and the concentrations of the compound.
For orientation: ELISA stands for enzyme-linked immunosorbent assay.

In data set [2] the target is T2, Human Recombinant Cyclooxygenase-2 (Homo sapiens, UniProt P35354).
T2 construct: made in house; host or cells: COS cells (transient expression; microsomes prepared after 66 hours)
T2 sequence (P35354 18-604): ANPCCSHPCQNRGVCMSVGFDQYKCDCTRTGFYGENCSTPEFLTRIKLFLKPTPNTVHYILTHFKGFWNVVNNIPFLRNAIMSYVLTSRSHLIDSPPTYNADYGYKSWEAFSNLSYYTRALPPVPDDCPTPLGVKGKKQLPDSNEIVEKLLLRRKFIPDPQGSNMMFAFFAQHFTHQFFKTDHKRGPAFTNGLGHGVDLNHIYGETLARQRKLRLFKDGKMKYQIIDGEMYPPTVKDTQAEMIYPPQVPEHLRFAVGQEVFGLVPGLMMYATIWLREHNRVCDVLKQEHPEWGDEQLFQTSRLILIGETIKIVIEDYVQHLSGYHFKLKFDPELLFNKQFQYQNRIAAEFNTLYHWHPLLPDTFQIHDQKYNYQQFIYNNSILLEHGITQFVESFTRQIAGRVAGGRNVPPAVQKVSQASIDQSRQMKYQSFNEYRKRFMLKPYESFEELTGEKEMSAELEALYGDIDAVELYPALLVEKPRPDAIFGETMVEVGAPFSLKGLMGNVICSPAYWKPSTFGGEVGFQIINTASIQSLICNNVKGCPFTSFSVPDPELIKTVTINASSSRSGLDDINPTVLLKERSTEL
Description: Inhibitory activity on human recombinant cyclooxygenase-2 microsomes from COS cells (PGE2 ELISA). The data set is classed as biochemical. The settings on record: for IC50: human recombinant COX-2 microsomes, PGE2 formation, read-out: Inhibitory Effect on COX-2 [IC50 (μM)]; for Selectivity (COX-1/COX-2): ratio of IC50 COX-1/COX-2. As for the experimental part:
In order to prepare cyclooxygenase-1 (COX-1) microsomes, ram seminal vesicles were homogenised by a blender. To prepare cyclooxygenase-2 (COX-2) microsomes, an expression vector which contains the human COX-2 gene was introduced into COS cells. The cells were homogenised by sonication after 66 hours cultivation. Microsomes were then prepared in accordance with conventional methods.
Enzyme activity was assayed as follows.
as §1, with “The” for “In order to prepare cyclooxygenase-1 (COX-1) microsomes, ram seminal vesicles were homogenised by a blender. To prepare cyclooxygenase-2 (COX-2) microsomes, an expression vector which contains the human COX-2 gene was introduced into COS cells. The cells were homogenised by sonication after 66 hours cultivation. Microsomes were then prepared in accordance with conventional methods. Enzyme activity was assayed as follows. The”

Data set [3] has as its system yeast-inflamed pain in rats. Description: Analgesic effect on yeast-inflamed pain in rats (Randall-Selitto method). Conditions: Rattus norvegicus, oral, pain threshold 0.5, 1 and 2 hours after administration, read-out: Efficacy Rate (No. of animals in which drug was effective/No. of animals used in test) (converted). The data set is classed as in vivo, Wistar-Imamichi rats. On the procedure:
The compound was suspended in 0.5%tragacanth and administered orally at a volume of 5 ml/kg. The control group was administered with 0.5% tragacanth only as a vehicle.
Wistar-Imamichi rats (males, 5 week old, body weights: 80-100 g) were used in this test.
The test was conducted in accordance with the method of Winter and Flataker [J. Pharmacol. Exp. Ther. 150, 165-171, (1965)], which is a modification of the original method of Randall and Selitto [Arch. Int. Pharmacodyn. Ther. 111, 405-419, (1957)]. The rats were fasted for 16 hours prior to use. Inflammation was induced by subcutaneous injection of 0.1 ml of a suspension of 20% beer yeast (Sigma) into the right hind footpad of the animal. After 4.5 hours, increasing pressure was applied to the inflamed footpad at a constant speed using an Analgesy meter (Trade mark) (Ugo-Basile Co.).
First the average of pain threshold values at each time point (0.5, 1, and 2 hr) was calculated in a control group. If a pain threshold value exceeded 2 times the control average value at the same time point even once in the drug-treated groups, then the animal was considered to indicate efficacy. Efficacy rates of the drug were estimated by the evaluation method of Blake [J. Pharm. Pharm. 19, 367-373, (1967)].

The subject of data set [4] is Carrageenan-induced Paw Edema in rats. Nature of the data set: Carrageenan-induced paw edema test. The data set is classed as in vivo, Wistar-Imamichi rats. The settings on record: Rattus norvegicus, oral, 3 hours after carrageenan, read-out: Inhibition Rate (%). On the procedure:
The same test compounds were subjected to the test as those in the Randall-Selitto test of Experiment 3. Wistar-Imamichi rats (males, 6 week old, body weights: 110-120 g) were used in this test.
The method of Winter, et al. [Proc. Soc. Exp. Biol. Med. 111, 544-547, (1962)] was slightly modified to perform the test [Sankyo Annual Research Report 39, 77-111, (1989)]. The rats were fasted for 16 hours prior to use. Inflammatory edema was induced by the subcutaneous injection of 0.05 ml of a 1% carrageenan (Viscarin 402) solution into the right hind paw of the animal. The test compounds were administered orally 30 minutes before injection of carrageenan. The volume of the right hind foot was measured with a Plethysmometer (Trade mark) (Ugo-Basile Co.) just before administration of the test compound and 3 hours after injection of carrageenan to determine the edema intensity [(right foot volume after 3 hours/right foot volume before injection)-1].
On the technique in general: In the carrageenan paw model, swelling and tenderness develop within hours.

Data set [5] concerns gastric mucosa. Nature of the data set: Irritative effect on gastric mucosa. In kind it is in vivo, Wistar rats. Conditions: oral; dose producing 50% incidence of gastric ulcers, 3.5 hours after dosing. As for the experimental part: Experiments were performed according to the method described by Jahn and Adrian [Arzneim.-Forsch. 19, 36, (1969)]. Male Wistar rats weighing approximately 120 g were fasted for 16 hours before the experiment. The drugs were administered orally to rats as described in Experiment 3. Three and the half hours after dosing, the animals were killed under ether-anesthesia and the stomachs were placed into 1% of formalin. The stomach was opened by cutting along the greater curvature and the number and length of lesions were counted under a microscope (6.3×10). The ulcerogenicity in each animal was assessed according to Hitchens et. al. [Pharmacologist 9, 242, (1967)]. Incidence was determined as the rate of rats with 4 or more ulcers of more than 0.5 mm length, and UD50's (doses producing 50% incidence) were calculated from the incidence and the dose by probit (=probability unit) method.

One may read the IC50 as the concentration needed to halve the response being measured. Regarding `Cc1cc(-c2ccc(S(N)(=O)=O)cc2)n(-c2ccc(F)cc2)c1` [Example 20, 1-(4-Fluorophenyl)-4-methyl-2-(4-sulfamoylphenyl) pyrrole], the 50% inhibitory concentration (IC50) in data set [1] worked out at 85 µM; in data set [2] it was 0.023 µM. The “Selectivity (COX-1/COX-2)” value in data set [2] worked out at 3696.

For `Cc1cc(-c2ccc(S(N)(=O)=O)cc2)n(-c2ccc(F)cc2)c1Cl` [Example 38, 5-Chloro-1-(4-fluorophenyl)-4-methyl-2-(4-sulfamoylphenyl)pyrrole], the IC50 in data set [1] is > 100 µM. Besides, in data set [2], the IC50 is 0.023 µM and the “Selectivity (COX-1/COX-2)” value is listed as >4348.

With `Cc1cc(-c2ccc(S(C)(=O)=O)cc2)n(-c2ccc(C)c(C)c2)c1` [Example 56, 4-Methyl-1-(3,4-dimethylphenyl)-2-(4-methylsulfonylphenyl)pyrrole], in data set [1], the concentration for half-maximal inhibition (IC50) is > 100 µM. Further, in data set [2], the 50% inhibitory concentration (IC50) came out at 0.018 µM and the “Selectivity (COX-1/COX-2)” value is given as >5556.

Take `Cc1ccc(-n2cc(C)cc2-c2ccc(S(N)(=O)=O)cc2)cc1` [Example 58, 4-Methyl-1-(4-methylphenyl)-2-(4-sulfamoylphenyl) pyrrole]: the IC50 in data set [1] was determined as 6.3 µM. Also, in data set [2], the IC50 turned out to be 0.019 µM and the “Selectivity (COX-1/COX-2)” value was 332.

On to `COc1ccc(-n2cc(C)cc2-c2ccc(S(N)(=O)=O)cc2)cc1` [Example 62, 1-(4-Methoxyphenyl)-4-methyl-2-(4-sulfamoylphenyl)pyrrole], for which the IC50 in data set [1] stood at 1.5 µM. In data set [2], the half-inhibitory concentration (IC50) is 0.0097 µM and the “Selectivity (COX-1/COX-2)” value was found to be 153. Besides, in data set [3], the responders at 12.5 mg/kg was 100%. Further, in data set [4], the inhibition in vivo at 50 mg/kg was 55%.

As for `Cc1cc(-c2ccc(Cl)cc2)n(-c2ccc(S(N)(=O)=O)cc2)c1` [Example 65, 2-(4-Chlorophenyl)-4-methyl-1-(4-sulfamoylphenyl) pyrrole], in data set [1], the concentration for half-maximal inhibition (IC50) is 13 µM. Further, in data set [2], the concentration for half-maximal inhibition (IC50) worked out at 0.015 µM and the “Selectivity (COX-1/COX-2)” value is 867. Also, the responders at 12.5 mg/kg in data set [3] is 100%. Further, the “UD50” value in data set [5] is >100 mg/kg.

Consider `COc1ccc(-c2c(C)ccn2-c2ccc(S(N)(=O)=O)cc2)cc1` [Example 73, 2-(4-Methoxyphenyl)-3-methyl-1-(4-sulfamoylphenyl)pyrrole], for which the half-maximal inhibitory concentration (IC50) is 3 µM in data set [1] and 0.025 µM in data set [2]. Also, the “Selectivity (COX-1/COX-2)” value in data set [2] is reported as 120. Further, the inhibition in vivo at 50 mg/kg in data set [4] is 72%.

For `COc1ccc(-c2cc(C)cn2-c2ccc(S(C)(=O)=O)cc2)cc1` [Example 80, 2-(4-Methoxyphenyl)-4-methyl-1-(4-methylsulfonylphenyl)pyrrole], the IC50 in data set [1] amounted to 25 µM. In addition, in data set [2], the IC50 is 0.011 µM and the “Selectivity (COX-1/COX-2)” value is given as 2273. For the same molecule, in data set [5], the “UD50” value is on record as >100 mg/kg.

Turning to `Cc1cc(-c2ccc(S(N)(=O)=O)cc2)n(-c2ccc(Cl)c(Cl)c2)c1` [Example 103], the 50% inhibitory concentration (IC50) in data set [1] worked out at 3.7 µM. Besides, in data set [2], the concentration for half-maximal inhibition (IC50) was 0.01 µM and the “Selectivity (COX-1/COX-2)” value is recorded as 370. The inhibition in vivo at 50 mg/kg in data set [4] was 56%. Also, in data set [5], the “UD50” value is >100 mg/kg.

Regarding `Cc1cc(-c2ccc(S(N)(=O)=O)cc2)n(-c2ccc(F)c(Cl)c2)c1` [Example 108], the IC50 in data set [1] came to 6 µM. In addition, in data set [2], the concentration for half-maximal inhibition (IC50) was < 0.01 µM and the “Selectivity (COX-1/COX-2)” value is >600. Further, the inhibition in vivo at 50 mg/kg in data set [4] was 58%.

As to `Cc1cc(-c2ccc(S(N)(=O)=O)cc2)n(-c2ccc3c(c2)OCO3)c1` [Example 109], the half-inhibitory concentration (IC50) in data set [1] was 3.8 µM. In data set [2], the concentration for half-maximal inhibition (IC50) was 0.023 µM and the “Selectivity (COX-1/COX-2)” value amounted to 165. In data set [4], the inhibition in vivo at 50 mg/kg is 77%.
